Results on 1 molecule are retold here after publication PMC9681820, “A PDE10A inhibitor CPL500036 is a novel agent modulating striatal function devoid of most neuroleptic side-effects” (Frontiers in Pharmacology, 2022).

Like-named read-outs stand apart in the source and are kept apart here.

The target of series [1] is T1, Endothelin receptor (Homo sapiens, UniProt P25101).
T1 construct: purchased Eurofins Cerep (SafetyScreen44)
Description: SafetyScreen44 radioligand binding. Conditions: agonist radioligand, read-out: % Inh (% inhibition of control specific binding). As to the method:
(§1) The SafetyScreen44® assay was carried out by Eurofins (Poitiers, France) according to the service-provider’s protocol. CPL500036 (1 µM) was tested against a panel of […] potential off-targets proteins, including G protein-coupled receptors (GPCRs), transporters, ion channels, nuclear receptors kinases and other non-kinase enzymes, by use of a set of the binding assays.
(§2) Binding of CPL500036 was calculated as the percent binding inhibition of a radioactively labeled ligand specific for each target. Enzyme inhibition of CPL500036 was calculated as the percent inhibition of the activity of the control enzyme. “No interaction” was denoted if inhibition ≤ 25% of specific binding of the control. Determination of muscarinic acetylcholine receptor (M2) activity induced by CPL500036 (antagonism and agonism) was undertaken in human recombinant CHO cells by measurement of the intracellular cAMP level according to the service-provider’s protocol. IC50 (concentration causing a half-maximal inhibition of specific binding of the control) or EC50 (concentration causing a half-maximal response of specific binding of the control) and the Hill coefficient were determined by non-linear regression analysis of the competition curves generated with mean replicate values using Hill-equation curve fitting with software developed at Cerep (Celle-Lévescault, France).

Series [2] has as its target T2, adenosine A2A receptor (Homo sapiens, UniProt P29274).
T2 construct: purchased Eurofins Cerep (SafetyScreen44)
Description: SafetyScreen44 radioligand binding. Particulars: agonist radioligand, read-out: % Inh (% inhibition of control specific binding). As to the method:
as §1, §2

For series [3], the target named is T3, alpha 4/beta 2 nicotinic acetylcholine receptor, (neuronal) (Homo sapiens, UniProt P17787+P43681).
T3 construct: purchased Eurofins Cerep (SafetyScreen44)
Description: SafetyScreen44 radioligand binding. Particulars: agonist radioligand, read-out: % Inh (% inhibition of control specific binding). The method, then:
as §1, §2

Series [4] concerns the target T4, androgen receptor (Homo sapiens, UniProt P10275, T878A).
T4 construct: purchased Eurofins Cerep (SafetyScreen44)
Description: SafetyScreen44 radioligand binding. Particulars: agonist radioligand, read-out: % Inh (% inhibition of control specific binding). As to the method:
as §1, §2

The target of series [5] is T5, dopamine receptor type 1 (Homo sapiens, UniProt P21728).
T5 construct: purchased Eurofins Cerep (SafetyScreen44)
Description: SafetyScreen44 radioligand binding. Particulars: read-out: % Inh (% inhibition of control specific binding). As to the method: as §1, §2

Series [6] concerns the target T6, dopamine receptor type 2 (Homo sapiens, UniProt P14416).
T6 construct: purchased Eurofins Cerep (SafetyScreen44)
Description: SafetyScreen44 radioligand binding. Particulars: agonist radioligand, read-out: % Inh (% inhibition of control specific binding). As to the method: as §1, §2

For series [7], the target named is T7, muscarinic acetylcholine receptor type 3 (Homo sapiens, UniProt P20309).
T7 construct: purchased Eurofins Cerep (SafetyScreen44)
Description: SafetyScreen44 radioligand binding. Conditions: read-out: % Inh (% inhibition of control specific binding). As to the method:
as §1, §2

The target of series [8] is T8, norepinephrine transporter (Homo sapiens, UniProt P23975).
T8 construct: purchased Eurofins Cerep (SafetyScreen44)
Description: SafetyScreen44 radioligand binding. Particulars: read-out: % Inh (% inhibition of control specific binding). The method, then: as §1, §2

In series [9] the target is T9, serotonin receptor 1A (Homo sapiens, UniProt P08908).
T9 construct: purchased Eurofins Cerep (SafetyScreen44)
Description: SafetyScreen44 radioligand binding. Conditions: agonist radioligand, read-out: % Inh (% inhibition of control specific binding). As to the method:
as §1, §2

Series [10] concerns the target T10, vasopressin receptor (Homo sapiens, UniProt P37288).
T10 construct: purchased Eurofins Cerep (SafetyScreen44)
Description: SafetyScreen44 radioligand binding. Particulars: agonist radioligand, read-out: % Inh (% inhibition of control specific binding). As to the method: as §1, §2

Series [11] in a line: Plasma protein binding (equilibrium dialysis). The series is classed as in vitro ADME, rats. As to the method:
The plasma protein binding study was carried out by Eurofins (Poitiers, France) according to the service-provider’s protocol. Briefly, the protein matrix was spiked with the test compound at 10 μM (n = 2) with a final DMSO concentration of 1%. The dialysate compartment was loaded with phosphate buffered saline (PBS, pH 7.4) and the sample side was loaded with equal volume of the spiked protein matrix. The dialysis plate was incubated at 37°C for 4 h. After the incubation, samples were taken from each compartment, diluted with the phosphate buffer followed by addition of acetonitrile and centrifugation. The supernatants were then used for HPLC-MS/MS analysis. Acebutolol, quinidine, and warfarin were tested as reference.
(In general: In equilibrium dialysis only unbound substance equilibrates across the membrane.)

A short description of series [12]: Pharmacokinetics after oral gavage in rats (plasma and brain). It counts as in vivo, Wistar Han rats. Particulars: for AUC(0-t): read-out: AUC(0–24h). As to the method:
The study was carried out in 40 male Wistar Han rats (∼10 weeks; Tri-City Academic Laboratory Animal Centre, Research and Services Centre, Medical University of Gdansk). Rats were fasted for 12 h (water was available at libitum) before administration and fed 4 h post-dose. Rats received CPL500036 (3 mg/kg per oral gavage). At each of eight time points (15 min, 30 min as well as 1 h, 2 h, 4 h, 7 h, 12 h, and 24 h), five rats were killed by exsanguination, and samples of blood and brain were harvested. Two male and two female Beagle dogs (10.5–13 months old, MediTox s.r.o., Konarovice, Czech Republic) received CPL500036 in a dose of 1.5 mg/kg per oral gavage. Blood was taken by venepuncture from v. cephalica antebrachii at twelve time points (0 min, 15 min, 30 min as well as 1 h, 2 h, 3 h, 4 h, 6 h, 8 h, 12 h, 24 h, and 48 h.
Blood was collected into tubes containing the anticoagulant K2EDTA and centrifuged (2,000 × g, 15 min, 4°C) to obtain plasma. Brain samples were homogenized in water. Plasma and brain homogenates were stored at −80°C until analyses. Acetonitrile (150 μl) spiked with internal standard (donepezil; MilliporeSigma) was added to 50 μl of each plasma homogenate or brain homogenate, respectively. The mixture was shaken vigorously for 2 min and then centrifuged (4,000 × g, 4 min, room temperature). Supernatants were injected into a high-performance liquid chromatography system (Infinity™ 1,260; Agilent Technologies, Santa Clara, CA, United States) with a Zorbax SB column ([…]; 1.8 μm; Agilent Technologies). The mobile phase was ammonium formate (20 mM, pH 3.0) and acetonitrile with 0.1% formic acid. The gradient chromatographic separation used a flow rate of 0.4 ml/min for 7.5 min at a nominal temperature of 30°C. Signal acquisition was undertaken for 5.5 min using of a triple quadrupole mass spectrometer (6,460 series; Agilent Technologies) with electrospray ionization (5500 V, 320°C). Multiple-reaction monitoring was applied to detect the following transitions of the m/z ratio: 342.0–220.9 and 342–235.9 for CPL500036; 380.5–362.9 and 380.5–243.5 for donepezil. The drug concentration was calculated from the ratio of the peak area response relative to the internal standard using a standard curve.

[13] abbreviates: male, Wistar Han, rat brain, 3 mg/kg oral gavage, mean ± SD.
[14] abbreviates: male, Wistar Han, rat plasma, 3 mg/kg oral gavage, mean ± SD.

T8 sequence (P23975 whole entry): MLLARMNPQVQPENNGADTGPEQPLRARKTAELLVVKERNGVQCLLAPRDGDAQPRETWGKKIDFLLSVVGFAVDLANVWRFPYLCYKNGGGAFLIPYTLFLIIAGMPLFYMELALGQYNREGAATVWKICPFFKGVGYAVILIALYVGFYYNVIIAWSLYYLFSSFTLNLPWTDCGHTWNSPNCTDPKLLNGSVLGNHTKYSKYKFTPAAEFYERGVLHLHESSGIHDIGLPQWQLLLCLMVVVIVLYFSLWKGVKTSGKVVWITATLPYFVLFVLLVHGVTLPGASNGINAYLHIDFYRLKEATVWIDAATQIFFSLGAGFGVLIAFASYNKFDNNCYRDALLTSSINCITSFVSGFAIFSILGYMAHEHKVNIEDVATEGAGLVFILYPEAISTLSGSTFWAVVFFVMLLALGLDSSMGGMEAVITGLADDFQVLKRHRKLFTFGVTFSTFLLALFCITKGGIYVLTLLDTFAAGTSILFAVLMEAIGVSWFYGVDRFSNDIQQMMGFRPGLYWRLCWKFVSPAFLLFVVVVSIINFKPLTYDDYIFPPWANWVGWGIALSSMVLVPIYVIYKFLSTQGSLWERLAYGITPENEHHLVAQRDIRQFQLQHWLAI
T3 sequence (P43681 29-627 limits assumed): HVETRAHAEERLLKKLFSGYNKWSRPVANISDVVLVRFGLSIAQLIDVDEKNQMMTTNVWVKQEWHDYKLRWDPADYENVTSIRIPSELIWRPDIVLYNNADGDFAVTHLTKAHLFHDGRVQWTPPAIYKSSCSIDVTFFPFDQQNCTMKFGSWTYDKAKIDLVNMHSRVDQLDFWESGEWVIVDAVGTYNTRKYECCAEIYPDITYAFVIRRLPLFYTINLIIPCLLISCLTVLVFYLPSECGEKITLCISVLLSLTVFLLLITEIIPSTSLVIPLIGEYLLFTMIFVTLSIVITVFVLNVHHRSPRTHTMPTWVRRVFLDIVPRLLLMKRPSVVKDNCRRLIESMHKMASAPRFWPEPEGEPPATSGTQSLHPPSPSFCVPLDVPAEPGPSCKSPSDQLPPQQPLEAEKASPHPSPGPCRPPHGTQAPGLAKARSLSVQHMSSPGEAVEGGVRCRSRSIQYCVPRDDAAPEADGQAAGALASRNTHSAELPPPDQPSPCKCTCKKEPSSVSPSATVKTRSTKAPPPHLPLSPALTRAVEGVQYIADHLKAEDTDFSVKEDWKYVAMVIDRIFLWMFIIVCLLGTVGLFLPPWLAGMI
T3 sequence (P17787 26-502): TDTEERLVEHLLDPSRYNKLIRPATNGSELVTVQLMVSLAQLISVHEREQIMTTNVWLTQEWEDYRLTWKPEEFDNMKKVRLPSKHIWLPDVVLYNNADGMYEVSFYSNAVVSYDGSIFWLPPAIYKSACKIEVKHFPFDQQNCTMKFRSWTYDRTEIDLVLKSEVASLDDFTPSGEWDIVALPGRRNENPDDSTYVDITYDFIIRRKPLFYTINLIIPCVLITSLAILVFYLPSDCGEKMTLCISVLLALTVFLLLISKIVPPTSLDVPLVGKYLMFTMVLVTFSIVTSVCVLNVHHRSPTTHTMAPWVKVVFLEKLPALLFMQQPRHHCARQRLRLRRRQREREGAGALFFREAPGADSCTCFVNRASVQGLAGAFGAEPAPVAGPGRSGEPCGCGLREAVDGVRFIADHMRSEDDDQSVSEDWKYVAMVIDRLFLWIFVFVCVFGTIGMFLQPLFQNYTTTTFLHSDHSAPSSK
T10 sequence (P37288 whole entry): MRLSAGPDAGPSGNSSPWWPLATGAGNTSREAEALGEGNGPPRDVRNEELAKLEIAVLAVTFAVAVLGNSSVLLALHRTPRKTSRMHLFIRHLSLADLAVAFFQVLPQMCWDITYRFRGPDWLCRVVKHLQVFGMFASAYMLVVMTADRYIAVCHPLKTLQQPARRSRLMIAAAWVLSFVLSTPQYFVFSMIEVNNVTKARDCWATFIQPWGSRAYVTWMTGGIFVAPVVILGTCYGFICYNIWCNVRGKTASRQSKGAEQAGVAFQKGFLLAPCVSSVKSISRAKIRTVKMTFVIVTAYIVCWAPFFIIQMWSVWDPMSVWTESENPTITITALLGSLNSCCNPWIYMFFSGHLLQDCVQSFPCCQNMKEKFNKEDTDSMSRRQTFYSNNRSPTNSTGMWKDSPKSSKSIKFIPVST
T1 sequence (P25101 21-427): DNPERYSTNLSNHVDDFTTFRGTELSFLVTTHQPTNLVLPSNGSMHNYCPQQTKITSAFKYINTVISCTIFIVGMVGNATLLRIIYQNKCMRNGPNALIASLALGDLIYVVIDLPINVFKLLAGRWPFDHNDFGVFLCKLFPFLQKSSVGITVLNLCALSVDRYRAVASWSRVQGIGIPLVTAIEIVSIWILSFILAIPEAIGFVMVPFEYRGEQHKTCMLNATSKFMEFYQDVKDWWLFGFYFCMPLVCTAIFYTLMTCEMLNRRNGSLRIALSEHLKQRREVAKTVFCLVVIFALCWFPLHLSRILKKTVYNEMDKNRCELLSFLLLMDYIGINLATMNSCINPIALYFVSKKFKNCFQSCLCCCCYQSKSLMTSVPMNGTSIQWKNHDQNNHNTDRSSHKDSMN
T6 sequence (P14416 whole entry): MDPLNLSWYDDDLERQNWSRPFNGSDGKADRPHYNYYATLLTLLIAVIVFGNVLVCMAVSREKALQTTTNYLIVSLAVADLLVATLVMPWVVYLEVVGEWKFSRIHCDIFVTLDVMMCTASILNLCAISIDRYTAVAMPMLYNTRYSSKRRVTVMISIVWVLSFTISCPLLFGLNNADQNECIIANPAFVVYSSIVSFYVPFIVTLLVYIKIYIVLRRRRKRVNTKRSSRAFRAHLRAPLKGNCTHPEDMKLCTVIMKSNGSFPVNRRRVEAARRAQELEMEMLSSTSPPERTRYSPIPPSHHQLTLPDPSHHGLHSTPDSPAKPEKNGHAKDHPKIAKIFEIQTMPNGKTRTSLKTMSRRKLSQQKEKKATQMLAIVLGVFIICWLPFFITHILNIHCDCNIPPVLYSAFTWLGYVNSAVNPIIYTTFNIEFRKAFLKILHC
T5 sequence (P21728 whole entry): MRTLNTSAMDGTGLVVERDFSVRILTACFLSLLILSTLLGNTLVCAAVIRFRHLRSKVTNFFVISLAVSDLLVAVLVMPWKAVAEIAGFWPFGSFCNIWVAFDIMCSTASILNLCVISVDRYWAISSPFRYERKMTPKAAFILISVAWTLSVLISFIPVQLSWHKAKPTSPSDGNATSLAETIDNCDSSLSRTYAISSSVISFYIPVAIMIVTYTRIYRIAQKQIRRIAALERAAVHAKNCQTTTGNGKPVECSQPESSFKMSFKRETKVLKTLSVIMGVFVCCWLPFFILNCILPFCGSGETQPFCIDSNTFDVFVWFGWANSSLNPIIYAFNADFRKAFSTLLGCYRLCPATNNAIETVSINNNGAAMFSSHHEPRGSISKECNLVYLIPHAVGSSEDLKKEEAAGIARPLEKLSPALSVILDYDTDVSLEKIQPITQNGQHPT
T2 sequence (P29274 whole entry): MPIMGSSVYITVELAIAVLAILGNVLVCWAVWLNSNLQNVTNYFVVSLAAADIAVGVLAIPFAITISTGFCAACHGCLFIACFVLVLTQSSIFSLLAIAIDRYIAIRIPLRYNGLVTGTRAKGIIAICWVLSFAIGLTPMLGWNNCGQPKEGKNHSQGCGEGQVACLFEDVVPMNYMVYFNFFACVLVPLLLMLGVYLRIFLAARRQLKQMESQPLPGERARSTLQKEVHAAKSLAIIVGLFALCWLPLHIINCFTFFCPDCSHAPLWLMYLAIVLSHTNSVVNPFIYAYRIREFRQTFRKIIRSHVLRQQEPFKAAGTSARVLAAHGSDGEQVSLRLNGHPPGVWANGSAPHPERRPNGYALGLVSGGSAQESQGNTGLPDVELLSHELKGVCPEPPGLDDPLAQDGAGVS
T4 sequence (P10275 whole entry T878A): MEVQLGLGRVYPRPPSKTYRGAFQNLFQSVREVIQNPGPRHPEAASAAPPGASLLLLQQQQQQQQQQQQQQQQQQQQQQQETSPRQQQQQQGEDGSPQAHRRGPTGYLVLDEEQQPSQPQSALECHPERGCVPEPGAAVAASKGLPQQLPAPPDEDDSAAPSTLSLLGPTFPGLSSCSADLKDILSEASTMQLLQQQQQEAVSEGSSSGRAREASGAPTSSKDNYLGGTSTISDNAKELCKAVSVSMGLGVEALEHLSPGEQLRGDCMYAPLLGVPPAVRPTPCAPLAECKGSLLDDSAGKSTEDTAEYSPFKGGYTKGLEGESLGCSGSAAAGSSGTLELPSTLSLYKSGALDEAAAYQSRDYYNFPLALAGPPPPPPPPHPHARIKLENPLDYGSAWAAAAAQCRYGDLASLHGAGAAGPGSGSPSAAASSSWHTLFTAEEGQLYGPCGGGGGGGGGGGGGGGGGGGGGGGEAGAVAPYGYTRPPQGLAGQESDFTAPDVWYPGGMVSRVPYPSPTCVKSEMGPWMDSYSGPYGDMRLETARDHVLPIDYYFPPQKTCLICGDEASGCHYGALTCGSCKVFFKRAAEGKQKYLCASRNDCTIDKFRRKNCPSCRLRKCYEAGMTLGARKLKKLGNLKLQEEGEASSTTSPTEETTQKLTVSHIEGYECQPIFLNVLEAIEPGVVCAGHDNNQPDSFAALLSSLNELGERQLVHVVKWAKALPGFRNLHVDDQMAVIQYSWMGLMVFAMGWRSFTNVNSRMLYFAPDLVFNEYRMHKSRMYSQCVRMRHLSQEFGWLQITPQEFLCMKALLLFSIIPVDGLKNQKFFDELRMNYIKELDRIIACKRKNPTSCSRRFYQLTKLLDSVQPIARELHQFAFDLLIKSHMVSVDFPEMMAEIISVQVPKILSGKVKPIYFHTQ

`Cc1ncc(C)n2nc(-c3ccn4cc(-c5ccccc5)nc4n3)nc12` [CPL500036, 7-[5,8-Dimethyl-(1,2,4)triazolo (1,5-a)pyrazin-2-yl]-2-phenylimidazo (1,2-a) pyrimidine]: the inhibition at 1 µM is -16.8% in series [1]; -8.1% in series [2]; -6.1% in series [3]; 5.3% in [4]; -8.2% in series [5]; -14.4% in [6]. Further, the inhibition at 1 µM was 0.7% in [7], -14.5% in series [8], 5.4% in [9] and -0.8% in series [10]. For the same molecule, in series [11] (based on the plasma protein binding and pharmacokinetic data), the “free concentration of CPL500036 in rats” value worked out at 5%. Moreover, in [11] (rat, plasma, pH 7.4, rats, 10 μM, 37°C, 4 h, n = 2), the fraction unbound at 4 h, 10 µM is 0.08. Besides, in series [12] (Wistar rats, 3 mg/kg, p.o.), the bioavailability result was “good bioavailability”. For the same molecule, the Kp in series [12] (male, Wistar Han, brain/plasma, rat, 3 mg/kg oral gavage, mean ± SD, read-out: B/P (brain to plasma ratio)) stood at 0.49 ± 0.06. Further, the Cmax was found to be 94.3 ± 28.5 ng/g in series [12] (setting [13]) and 238 ± 98.1 ng/mL in [12] (setting [14]). The Tmax in [12] (setting [13]) was determined as 6.8 ± 3.3 h; in [12] (setting [14]), 5.8 ± 1.6 h. The AUC(0-t) in [12] (setting [13]) was found to be 844 ± 202 ng·h/mL; in series [12] (setting [14]) it was 1620 ng·h/mL. Further, in [12] (setting [14]), the half-life was 384 ± 372 min.

Broadly, the inhibition is the relative decrease from the control value, in per cent. The fraction unbound is the share of the substance not bound to proteins or other matrix. Lower therefore signals little free substance. For orientation: Cmax means the peak of the concentration-time curve. By Tmax is commonly meant the time from dosing to the highest level. For orientation: half-life means how long it takes for the measured level to halve. A higher half-life goes with slow decline.
